Results reported in patent publication US10710986B2, “PD-1/PD-L1 inhibitors” (Gilead Sciences, Inc., priority 2018, dated 2020).

molecular target: PD-1/PD-L1 (Homo sapiens (Human), UniProt Q9NZQ7); experiment: PD-1/PD-L1 biochemical protein-protein interaction assay (ALPHA); conditions: 0.3 nM His tagged PD-L1, 2.5 nM biotinylated Fc-PD-1, 60 minutes at 25° C., read-out: IC50 PD-L1-PD1
Sequence (Q9NZQ7 19-238): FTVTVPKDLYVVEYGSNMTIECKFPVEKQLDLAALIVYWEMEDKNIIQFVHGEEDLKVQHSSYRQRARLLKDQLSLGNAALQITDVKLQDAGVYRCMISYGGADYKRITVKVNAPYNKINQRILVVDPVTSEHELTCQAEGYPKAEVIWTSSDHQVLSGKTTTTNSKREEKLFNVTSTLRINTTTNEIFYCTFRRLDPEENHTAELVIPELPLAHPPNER

IC50	SMILES
0.115 nM	COc1nc(-c2cccc(-c3cccc(-c4cnc(CN[C@H]5C[C@H](C(C)(C)O)C5)c(OC)n4)c3Cl)c2Cl)cnc1CNC[C@@H]1CCC(=O)N1 [compound 366]
0.064 nM	COc1nc(-c2cccc(-c3cccc(-c4cnc(CN5CC6(C5)CS(=O)(=O)C6)c(OC)n4)c3Cl)c2Cl)cnc1CNC[C@@H]1CCC(=O)N1 [compound 367]
0.064 nM	COc1nc(-c2cccc(-c3cccc(-c4cnc(CN5CC6(CNC(=O)C6)C5)c(OC)n4)c3Cl)c2Cl)cnc1CNC[C@@H]1CCC(=O)N1 [compound 368]
0.078 nM	COc1nc(-c2cccc(-c3cccc(-c4cnc(CN5CC(NC(C)=O)C5)c(OC)n4)c3Cl)c2Cl)cnc1CNC[C@@H]1CCC(=O)N1 [compound 369]
0.064 nM	COc1nc(-c2cccc(-c3cccc(-c4cnc(CNC[C@@H]5CCC(=O)N5)c(OC)n4)c3Cl)c2Cl)cnc1CNCCn1ccccc1=O [compound 370]
0.213 nM	COc1nc(-c2cccc(-c3cccc(-c4cnc(CN5CC6(CCC(=O)N6)C5)c(OC)n4)c3Cl)c2Cl)cnc1CNC[C@@H]1CCC(=O)N1 [compound 371]
0.104 nM	COc1nc(-c2cccc(-c3cccc(-c4cnc(CNC[C@@H]5CCC(=O)N5)c(OC)n4)c3Cl)c2Cl)cnc1CNCCN1CCCC1=O [compound 372]
0.13 nM	COc1nc(-c2cccc(-c3cccc(-c4cnc(CNC[C@@H]5CCC(=O)N5)c(OC)n4)c3Cl)c2Cl)cnc1CNCCNC(C)=O [compound 373]
0.183 nM	COc1nc(-c2cccc(-c3cccc(-c4cnc(CNC[C@@H]5CCC(=O)N5)c(OC)n4)c3Cl)c2Cl)cnc1CNCCO [compound 374]
0.459 nM	COc1nc(-c2cccc(-c3cccc(-c4cnc(CNC(C)(C)CNC(C)=O)c(OC)n4)c3Cl)c2Cl)cnc1CNC[C@@H]1CCC(=O)N1 [compound 375]
0.208 nM	COc1nc(-c2cccc(-c3cccc(-c4cnc(CNCC(C)(C)NC(C)=O)c(OC)n4)c3Cl)c2Cl)cnc1CNC[C@@H]1CCC(=O)N1 [compound 376]
0.098 nM	COc1nc(-c2cccc(-c3cccc(-c4cnc(CNC(C)(C)CO)c(OC)n4)c3Cl)c2Cl)cnc1CNC[C@@H]1CCC(=O)N1 [compound 377]
0.396 nM	COc1nc(-c2cccc(-c3cccc(-c4cnc(CNCC(C)(C)O)c(OC)n4)c3Cl)c2Cl)cnc1CNC[C@@H]1CCC(=O)N1 [compound 378]
0.155 nM	COc1nc(-c2cccc(-c3cccc(-c4cnc(CN5CC(O)C5)c(OC)n4)c3Cl)c2Cl)cnc1CNC[C@@H]1CCC(=O)N1 [compound 379]
0.203 nM	COc1nc(-c2cccc(-c3cccc(-c4cnc(CN5CC[C@@H](O)C5)c(OC)n4)c3Cl)c2Cl)cnc1CNC[C@@H]1CCC(=O)N1 [compound 380]
0.085 nM	COc1nc(-c2cccc(-c3cccc(-c4cnc(CN[C@@H]5CCC[C@@H]5O)c(OC)n4)c3Cl)c2Cl)cnc1CNC[C@@H]1CCC(=O)N1 [compound 381]
0.289 nM	COc1nc(-c2cccc(-c3cccc(-c4cnc(CNCC(C)(C)O)c(OC)n4)c3Cl)c2Cl)cnc1CNCC(C)(C)O [compound 382]
0.887 nM	COc1nc(-c2cccc(-c3cccc(-c4cnc(CN[C@@H]5CCC[C@@H]5O)c(OC)n4)c3Cl)c2Cl)cnc1CN[C@@H]1CCC[C@@H]1O [compound 383]
0.154 nM	COc1nc(-c2cccc(-c3cccc(-c4cnc(CNC(C)(C)CO)c(OC)n4)c3Cl)c2Cl)cnc1CNC(C)(C)CO [compound 384]

IC50	SMILES
0.292 nM	COc1nc(-c2cccc(-c3cccc(-c4cnc([C@H](C)N)c(OC)n4)c3Cl)c2Cl)cnc1[C@H](C)N [compound 385]
0.879 nM	COc1nc(-c2cccc(-c3cccc(-c4cnc([C@@H](C)N)c(OC)n4)c3Cl)c2Cl)cnc1[C@@H](C)N [compound 386]
0.625 nM	COc1nc(-c2cccc(-c3cccc(-c4cnc(CN[C@@H]5CC[C@@H]6CC(=O)N[C@@H]65)c(OC)n4)c3Cl)c2Cl)cnc1CNC[C@@H]1CCC(=O)N1 [compound 387]
1.22 nM	COc1nc(-c2cccc(-c3cccc(-c4cnc(CN[C@@H]5CC[C@@H]6CC(=O)N[C@@H]65)c(OC)n4)c3Cl)c2Cl)cnc1CN[C@@H]1CC[C@@H]2CC(=O)N[C@@H]21 [compound 388]
0.211 nM	COc1nc(-c2cccc(-c3cccc(-c4cnc(CN5CC6(CNC(=O)C6)C5)c(OC)n4)c3Br)c2Cl)cnc1CN1CC2(CNC(=O)C2)C1 [compound 389]
0.146 nM	COc1nc(-c2cccc(-c3cccc(-c4cnc(CN5CC6(CCC(=O)N6)C5)c(OC)n4)c3Br)c2Cl)cnc1CN1CC2(CCC(=O)N2)C1 [compound 390]
0.232 nM	COc1nc(-c2cccc(-c3cccc(-c4cnc(CN5CC(O)C5)c(OC)n4)c3Br)c2Cl)cnc1CN1CC(O)C1 [compound 391]
0.246 nM	COc1nc(-c2cccc(-c3cccc(-c4cnc(CNC[C@H]5CCC(=O)N5)c(OC)n4)c3Br)c2Cl)cnc1CNC[C@H]1CCC(=O)N1 [compound 392]
2.23 nM	COc1nc(-c2cccc(-c3cccc(-c4cnc(CN5CC6(CNC(=O)C6)C5)c(OC)n4)c3Br)c2F)cnc1CN1CC2(CNC(=O)C2)C1 [compound 393]
1.78 nM	COc1nc(-c2cccc(-c3cccc(-c4cnc(CN5CC6(CCC(=O)N6)C5)c(OC)n4)c3Br)c2F)cnc1CN1CC2(CCC(=O)N2)C1 [compound 394]
9.24 nM	COc1nc(-c2cccc(-c3cccc(-c4cnc(CN5CC(O)C5)c(OC)n4)c3Br)c2F)cnc1CN1CC(O)C1 [compound 395]
2.02 nM	COc1nc(-c2cccc(-c3cccc(-c4cnc(CNC[C@@H]5CCC(=O)N5)c(OC)n4)c3Br)c2F)cnc1CNC[C@@H]1CCC(=O)N1 [compound 396]
0.561 nM	COc1nc(-c2cc(F)cc(-c3cc(F)cc(-c4cnc(CNC[C@@H]5CCC(=O)N5)c(OC)n4)c3Cl)c2Cl)cnc1CNC[C@@H]1CCC(=O)N1 [compound 397]
0.195 nM	COc1nc(-c2cccc(-c3cc(F)cc(-c4cnc(CNC[C@@H]5CCC(=O)N5)c(OC)n4)c3Cl)c2Cl)cnc1CNC[C@@H]1CCC(=O)N1 [compound 398]
0.324 nM	COc1nc(-c2cccc(-c3cc(F)cc(-c4cnc(CN5CC(O)C5)c(OC)n4)c3Cl)c2Cl)cnc1CN1CC(O)C1 [compound 399]
0.173 nM	COc1nc(-c2cccc(-c3cccc(-c4cnc(CN5CC(OC)C5)c(OC)n4)c3Cl)c2Cl)cnc1CN1CC(OC)C1 [compound 400]
0.295 nM	COc1nc(-c2cccc(-c3cccc(-c4cnc(CN(C)C)c(OC)n4)c3Cl)c2Cl)cnc1CN(C)C [compound 401]
0.175 nM	CNCc1ncc(-c2cccc(-c3cccc(-c4cnc(CNC)c(OC)n4)c3Cl)c2Cl)nc1OC [compound 402]
0.07 nM	COc1nc(-c2cccc(-c3cccc(-c4cnc(CNC[C@@H]5CCC(=O)N5)c(OC)n4)c3Cl)c2Cl)cnc1CNCC1CC(=O)NC1=O (stereo partly drawn) [compound 403]

IC50	SMILES
0.07 nM	COc1nc(-c2cccc(-c3cccc(-c4cnc(CN5CCC(c6cnccn6)C5)c(OC)n4)c3Cl)c2Cl)cnc1CNC[C@@H]1CCC(=O)N1 (stereo partly drawn) [compound 404]
0.16 nM	COc1nc(-c2cccc(-c3cccc(-c4cnc(CN5CCC(c6cccnc6)C5)c(OC)n4)c3Cl)c2Cl)cnc1CNC[C@@H]1CCC(=O)N1 (stereo partly drawn) [compound 405]
0.28 nM	COc1nc(-c2cccc(-c3cccc(-c4cnc(CN5CCC(c6ccccn6)C5)c(OC)n4)c3Cl)c2Cl)cnc1CNC[C@@H]1CCC(=O)N1 (stereo partly drawn) [compound 406]
0.186 nM	COc1nc(-c2cccc(-c3cccc(-c4cnc(CN5CCC(O)(CC#N)C5)c(OC)n4)c3Cl)c2Cl)cnc1CNC[C@@H]1CCC(=O)N1 (stereo partly drawn) [compound 407]
0.139 nM	COc1nc(-c2cccc(-c3cccc(-c4cnc(CN5CCC(c6ncccn6)C5)c(OC)n4)c3Cl)c2Cl)cnc1CNC[C@@H]1CCC(=O)N1 (stereo partly drawn) [compound 408]
0.124 nM	COc1nc(-c2cccc(-c3cccc(-c4cnc(CN5CCC(C6CCCO6)C5)c(OC)n4)c3Cl)c2Cl)cnc1CNC[C@@H]1CCC(=O)N1 (stereo partly drawn) [compound 409]
0.316 nM	COc1nc(-c2cccc(-c3cccc(-c4cnc(CN5CCC(c6ccncc6)C5)c(OC)n4)c3Cl)c2Cl)cnc1CNC[C@@H]1CCC(=O)N1 (stereo partly drawn) [compound 410]
0.321 nM	COc1nc(-c2cccc(-c3cccc(-c4cnc(CN5CCC(C6CCOC6)C5)c(OC)n4)c3Cl)c2Cl)cnc1CNC[C@@H]1CCC(=O)N1 (stereo partly drawn) [compound 411]
0.187 nM	COc1nc(-c2cccc(-c3cccc(-c4cnc(CNC[C@@H]5CCC(=O)N5)c(OC)n4)c3Cl)c2Cl)cnc1CNCCc1cncc(O)c1 [compound 412]
0.162 nM	COc1nc(-c2cccc(-c3cccc(-c4cnc(CNC[C@@H]5CCC(=O)N5)c(OC)n4)c3Cl)c2Cl)cnc1CNCC(O)CN1CCCC1 (stereo partly drawn) [compound 413]
0.559 nM	COc1ccnc2c1CN(Cc1ncc(-c3cccc(-c4cccc(-c5cnc(CNC[C@@H]6CCC(=O)N6)c(OC)n5)c4Cl)c3Cl)nc1OC)C2 [compound 414]
0.195 nM	COc1nc(-c2cccc(-c3cccc(-c4cnc(CNC5CCN(C(=O)c6ccoc6)CC5)c(OC)n4)c3Cl)c2Cl)cnc1CNC[C@@H]1CCC(=O)N1 [compound 415]
0.14 nM	COc1nc(-c2cccc(-c3cccc(-c4cnc(CNC5CCN(C)C(=O)C5)c(OC)n4)c3Cl)c2Cl)cnc1CNC[C@@H]1CCC(=O)N1 (stereo partly drawn) [compound 416]
0.196 nM	COc1nc(-c2cccc(-c3cccc(-c4cnc(CNC[C@@H]5CCC(=O)N5)c(OC)n4)c3Cl)c2Cl)cnc1CNCCc1ccccn1 [compound 417]
0.219 nM	COc1nc(-c2cccc(-c3cccc(-c4cnc(CNC[C@@H]5CCC(=O)N5)c(OC)n4)c3Cl)c2Cl)cnc1CNCc1ccccn1 [compound 418]
0.542 nM	COc1nc(-c2cccc(-c3cccc(-c4cnc(CNC[C@@H]5CCC(=O)N5)c(OC)n4)c3Cl)c2Cl)cnc1CNCCCc1nc2ccccc2[nH]1 [compound 419]
0.449 nM	COc1nc(-c2cccc(-c3cccc(-c4cnc(CNC[C@@H]5CCC(=O)N5)c(OC)n4)c3Cl)c2Cl)cnc1CNCc1ncccn1 [compound 420]
0.603 nM	COc1nc(-c2cccc(-c3cccc(-c4cnc(CNC5(c6ccccn6)CC5)c(OC)n4)c3Cl)c2Cl)cnc1CNC[C@@H]1CCC(=O)N1 [compound 421]
0.554 nM	COc1nc(-c2cccc(-c3cccc(-c4cnc(CNC[C@@H]5CCC(=O)N5)c(OC)n4)c3Cl)c2Cl)cnc1CNCc1ccncc1 [compound 422]
